Measurements from publication PMC4383706 (Cancer prevention research (Philadelphia, Pa.), 2015).
“Also recorded” adds a separate entry of the source. Where two headings read alike, the source gives them in different places. Values belong to the compound of their own block, whether it stands above or below them.

How the values were obtained:
[1] = system: OH-BBN-induced urinary bladder cancers; conditions: prior studies; at their HEDs (aspirin at doses in substantial excess of its HED), even when initiated after pre-invasive microscopic cancers; cited from earlier work
colon adenomas = conditions: cited from earlier work
urinary bladder cancer = conditions: dogs; cited from earlier work
[2] = system: OH-BBN-induced urinary bladder cancers; assay: OH-BBN-induced urinary bladder cancer model; assay type: in vivo, Female Fischer-344 rats; conditions: for final weights of urinary bladder plus cancers vs vehicle control: end of study, Supplementary Fig. 1A/1B; for number of rats with large urinary bladder cancers (>200 mg) at end of study: vehicle 24/25
[3] = multiple clinical studies; cited from earlier work
[4] = rats, omeprazole levels at the human equivalent dose; cited from earlier work
[5] = system: colon, bladder, skin tumors; conditions: doses which correspond to human doses of 100 or 325 mg; cited from earlier work
[6] = NPX 40 mg/Kg BW gavage; for CI: serum
[7] = system: OH-BBN-induced urinary bladder cancers; conditions: NPX limited treatment vs vehicle; Supplementary Fig. 3
[8] = humans; cited from earlier work
[9] = low to moderate doses of aspirin

SMILES: Cc1ccc(-c2cc(C(F)(F)F)nn2-c2ccc(S(N)(=O)=O)cc2)cc1 [celecoxib]
blocking the development of large palpable cancers [1]: effective | decrease in advanced adenomas (colon adenomas; clinical trial): 55–65% | decrease in total colon adenomas (colon adenomas; clinical trial): ~45%

SMILES: COc1ccc2cc([C@H](C)C(=O)OCCCCO[N+](=O)[O-])ccc2c1 [NO-NPX]
blocking the development of large palpable cancers [1]: effective

SMILES: CN1C(C(=O)Nc2ccccn2)=C(O)c2ccccc2S1(=O)=O [Piroxicam]
therapeutic efficacy in urinary bladder cancer (urinary bladder cancer): has shown therapeutic efficacy

SMILES: CC1=C(CC(=O)O)c2cc(F)ccc2/C1=C\c1ccc([S+](C)[O-])cc1 (stereo not shown) [sulindac]
blocking the development of large palpable cancers [1]: effective

SMILES: COc1ccc2[nH]c([S+]([O-])Cc3ncc(C)c(OC)c3C)nc2c1 (stereo not shown) [omeprazole]
final weights of urinary bladder plus cancers vs vehicle control [2]: larger in size than tumors in rats given the vehicle alone | decrease of GI bleeding [3]: 50–75% | acidity of the stomach [4]: decreased the acidity of the stomach

SMILES: CC(=O)Oc1ccccc1C(=O)O [aspirin]
blocking the development of large palpable cancers [1]: effective | decrease in advanced adenomas (colon adenomas; [9]): 35–40% | decrease in total adenomas (colon adenomas; [9]): 20–25% | preventive efficacy in animal models [5]: routinely ineffective

SMILES: CN(CCOc1ccc(CC2SC(=O)NC2=O)cc1)c1ccccn1 (stereo not shown) [rosiglitazone]
tumor latency ([2]; rosiglitazone 10 mg/kg BW/day by gavage, 10 rats): greatly decreased tumor latency

time for which serum levels greater than 100 uM were achieved following gavage [6]: less than 6 hours | CI ([6]; 14 Day (14 consecutive days)): 0.817 mL/min/kg | CI ([6]; 24 hour (1 day) time point): 0.967 mL/min/kg
SMILES: COc1ccc2cc([C@H](C)C(=O)O)ccc2c1 [NPX, naproxen]
number of rats with large urinary bladder cancers (>200 mg) at end of study ([2]; 1 week daily NPX (40 mg/kg BW/day)/1week vehicle (Group B)): 6/29 | number of rats with large urinary bladder cancers (>200 mg) at end of study ([2]; 3 week daily NPX (40 mg/kg BW/day)/3 week vehicle (Group C)): 5/28 | rats with palpable cancers, protocol C ([2]; 3 weeks daily NPX/3 week vehicle, vehicle 96%, P<0.01): 19% | inhibition of urinary bladder cancer formation ([2]; NPX by gavage daily, 1 week on/1 week off, or 3 weeks on/3 weeks off, P<.005): 73–82% | rats with palpable cancers, protocol A ([2]; NPX daily, beginning 2 weeks after last OH-BBN, vehicle 96%, P<0.01): 27% | reduction of urinary bladder cancer incidence ([2]; NPX daily, P<0.01): approximately 75% | final weights of urinary bladder plus cancers vs vehicle control [2]: final weights were higher in vehicle controls than in any of the three NPX treatment groups; also recorded: significantly different from control | levels of phosphorylated AKT (S473) [7]: slightly, but significantly, decrease | phosphorylation of PI3K [7]: slightly, but significantly, decrease | blocking the development of large palpable cancers [1]: effective | accumulation in urine [8]: preferentially accumulates in urine
